Legend:
[1] = biological target: T1, pKPTPλ, truncated ChPTPλ containing the intracellular domain (Gallus gallus, UniProt Q91976); test: PTP assay of bacterial extract expressing pKPTPλ; format: biochemical, chicken
T1 construct: HindIII/EcoRI fragment in pKKUC12, E. coli DHB4 extract
Description: A 2 kb-cDNA fragment encoding the entire intracellular domain of ChPTPλ was excised by HindIII and EcoRI (starting from leucine 520, FIG. 2A-2C) and ligated to the expression vector pKKUC12. The recombinant,pkPTPλ, was transformed into E. coli DHB4 that lacks alkaline phosphatase (35). After induction by 0.4 mM IPTG for 2 h, bacterial extracts were prepared (5) and 5 μl samples were used for PTP assays. The extract of DHB4 containing the vector only was used as a negative control.
(§1) Raytide (Oncogene Science) and bovine brain myelin basic protein (Sigma) (20 μg each) were phosphorylated on tyrosines by v-Src (34 pg), purified from a baculovirus expression system (35a), in 50 μl containing 20 mM Tris-HCl, pH 7.2/5 mM MnCl2 /50 μCi [γ-^32 P]ATP at 30° C. for 3 h. Casein and histone 2B (Sigma) were phosphorylated on serines and threonines by the catalytic subunit of calf heart cAMP-dependent protein kinase (1 U, Sigma) in 50 μl including 25 mM Hepes, pH 7.4/10 mM MgCl2 /10 mM DTT/50 μCi [γ-^32 P]ATP. All reactions were terminated by TCA-precipitationand resuspended in Tris-HCl (pH 8.0) as previously described (5).
(§2) […] When bacterial extract was used, assay was done in 50 μl of PTP buffer. After incubating at 30° C. for 30 min, the reactions were stopped, and the released ^32 Pi was measured as previously described (5).

ChPTPλ = test: PTP assay of ChPTPλ immunoprecipitated with A299 from DT40 cells (release of 32Pi from tyrosine-phosphorylated substrate); format: biochemical, chicken; conditions: for ChPTPλ (% activity): buffer 20 mM Hepes (pH 7.4); for effect on ChPTPλ activity (in words) / effect on ChPTPλ activity: concentration not given (Table 1); for requirement for higher ChPTPλ activity in vitro (in words): chelator
Description: For immunoblot (Western) analysis, cells were lysed in 1% SDS containing protease inhibitor mix (1 mM phenylmethylsulfonyl fluoride/2 μg aprotinin per ml/1 μg pepstatin per ml) (Boehringer). […] For immunoprecipitation, cells were solubilized in 1% NP-40/PBS/protease inhibitor mix, then ChPTPλ was immunoprecipitated with pA299 (25).
as §1, §2

[2] = 10 mM, buffer 20 mM Hepes (pH 7.4), 10 mM DTT, 5 mM EDTA

T1 sequence (Q91976 541-1237): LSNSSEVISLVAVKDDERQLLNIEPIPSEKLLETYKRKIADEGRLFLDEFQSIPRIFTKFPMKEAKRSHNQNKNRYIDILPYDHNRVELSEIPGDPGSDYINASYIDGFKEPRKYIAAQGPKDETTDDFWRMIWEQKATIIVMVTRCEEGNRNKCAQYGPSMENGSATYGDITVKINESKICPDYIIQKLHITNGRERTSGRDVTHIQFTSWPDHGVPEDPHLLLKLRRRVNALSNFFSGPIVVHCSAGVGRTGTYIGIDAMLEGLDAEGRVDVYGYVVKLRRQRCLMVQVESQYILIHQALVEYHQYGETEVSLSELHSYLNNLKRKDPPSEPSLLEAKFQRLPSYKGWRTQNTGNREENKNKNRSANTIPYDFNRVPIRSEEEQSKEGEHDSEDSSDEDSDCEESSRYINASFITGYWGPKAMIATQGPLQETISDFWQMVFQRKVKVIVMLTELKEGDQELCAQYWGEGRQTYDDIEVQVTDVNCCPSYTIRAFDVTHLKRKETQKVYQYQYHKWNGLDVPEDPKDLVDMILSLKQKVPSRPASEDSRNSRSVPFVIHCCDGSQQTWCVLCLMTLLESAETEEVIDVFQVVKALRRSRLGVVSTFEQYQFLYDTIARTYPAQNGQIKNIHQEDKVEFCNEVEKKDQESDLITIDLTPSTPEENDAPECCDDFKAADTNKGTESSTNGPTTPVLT

Molecule: [Ca+2].[Cl-].[Cl-] [CaCl2]
- pKPTPλ (% activity) [1, 2]: 90%
- ChPTPλ (% activity) (ChPTPλ; 10 mM, 10 mM DTT, 5 mM EDTA): 100%
- effect on ChPTPλ activity (in words) (ChPTPλ): no effect at all

Molecule: O[C@@H](CS)[C@@H](O)CS [DTT]
- pKPTPλ (% activity) ([1]; 10 nM, buffer 20 mM Hepes (pH 7.4)): 80%
- ChPTPλ (% activity) (ChPTPλ; 10 nM): 65%
- ChPTPλ (% activity) (ChPTPλ; 1 mM): 39%
- requirement for ChPTPλ activity (in words) (ChPTPλ; 10 mM, reducing reagent): required for ChPTPλ activity

Molecule: O=C(O)CN(CCN(CC(=O)O)CC(=O)O)CC(=O)O [EDTA]
- activity at 0.005 µM ([1]; pH 7.4, read-out: pKPTPλ (% activity)): 100%
- ChPTPλ (% activity) (ChPTPλ; 5 nM, 10 mM DTT): 100%
- requirement for higher ChPTPλ activity in vitro (in words) (ChPTPλ): needed for ChPTPλ to reach a higher activity

Molecule: O=C(O)CN(CCOCCOCCN(CC(=O)O)CC(=O)O)CC(=O)O [EGTA]
- activity at 5000 µM ([1]; 5 mM, buffer 20 mM Hepes (pH 7.4), 10 mM DTT): 100%
- ChPTPλ (% activity) (ChPTPλ; 5 mM, 10 mM DTT): 100%
- requirement for higher ChPTPλ activity in vitro (in words) (ChPTPλ): needed for ChPTPλ to reach a higher activity

Molecule: O=C(O)CI [Iodoacetate]
- inhibition of ChPTPλ (ChPTPλ; 1 mM): > 70%
- ChPTPλ (% activity) (ChPTPλ; 1 mM, 10 mM DTT, 5 mM EDTA): 29%

Molecule: [Cl-].[Cl-].[Mg+2] [MgCl2]
- pKPTPλ (% activity) [1, 2]: 80%
- ChPTPλ (% activity) (ChPTPλ; 10 mM, 10 mM DTT, 5 mM EDTA): 80%
- effect on ChPTPλ activity (ChPTPλ): < 30%

Molecule: [Cl][Mn][Cl] [MnCl2]
- pKPTPλ (% activity) [1, 2]: 51%
- inhibitory influence on pKPTPλ activity ([1]; same assaying conditions (Table 1)): 49%
- ChPTPλ (% activity) (ChPTPλ; 10 mM, 10 mM DTT, 5 mM EDTA): 87%
- effect on ChPTPλ activity (ChPTPλ): < 30%

Molecule: [Na+].[Na+].[O]=[Mo](=[O])([O-])[O-] [Na2 MoO4]
- pKPTPλ (% activity) ([1]; 0.1 mM, buffer 20 mM Hepes (pH 7.4), 10 mM DTT, 5 mM EDTA): 11%
- inhibition of ChPTPλ (ChPTPλ; 0.1 mM): > 70%
- ChPTPλ (% activity) (ChPTPλ; 0.1 mM, 10 mM DTT, 5 mM EDTA): 24%

Molecule: [Na+].[Na+].[Na+].[O]=[V]([O-])([O-])[O-] [Na3 VO4]
- pKPTPλ (% activity) ([1]; 1 mM, buffer 20 mM Hepes (pH 7.4), 10 mM DTT, 5 mM EDTA): 2%
- ChPTPλ (% activity) (ChPTPλ; 0.1 mM, 10 mM DTT, 5 mM EDTA): 78%
- inhibition of ChPTPλ (ChPTPλ; 1 mM): > 70%
- ChPTPλ (% activity) (ChPTPλ; 1 mM, 10 mM DTT, 5 mM EDTA): 4%

Molecule: [Cl-].[Na+] [NaCl]
- ChPTPλ (% activity) (ChPTPλ; 200 mM, 10 mM DTT, 5 mM EDTA): 100%
- effect on ChPTPλ activity (in words) (ChPTPλ): no effect at all

Molecule: [Cl-].[Cl-].[Zn+2] [ZnCl2]
- pKPTPλ (% activity) [1, 2]: 1%
- inhibition of ChPTPλ (ChPTPλ; 10 mM): > 70%
- ChPTPλ (% activity) (ChPTPλ; 10 mM, 10 mM DTT, 5 mM EDTA): 12%

Molecule: NaPO4
- pKPTPλ (% activity) [1, 2]: 95%
- ChPTPλ (% activity) (ChPTPλ; 10 mM, 10 mM DTT, 5 mM EDTA): 70%
- effect on ChPTPλ activity (ChPTPλ): < 30%

Source: US5693488A, “Transmembrane tyrosine phosphatase, nucleic acids encoding the same, and methods of use thereof” (The Rockefeller University, priority 1994, dated 1997)
